The target of this experiment is T1, human TGR5 (Homo sapiens, UniProt Q8TDU6).
T1 construct: expressed in transfected cells; host or cells: HEK293
T1 sequence (Q8TDU6 1-330): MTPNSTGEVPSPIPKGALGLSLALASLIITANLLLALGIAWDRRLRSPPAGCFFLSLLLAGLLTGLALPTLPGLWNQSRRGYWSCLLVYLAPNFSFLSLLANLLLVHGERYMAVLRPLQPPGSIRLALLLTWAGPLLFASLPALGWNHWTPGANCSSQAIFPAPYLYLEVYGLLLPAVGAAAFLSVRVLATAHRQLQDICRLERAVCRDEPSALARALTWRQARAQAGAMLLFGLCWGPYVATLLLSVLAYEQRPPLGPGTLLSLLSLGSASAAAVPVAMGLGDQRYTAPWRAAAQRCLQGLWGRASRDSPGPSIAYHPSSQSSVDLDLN
In words: Cell-based TGR5 assay (cAMP generation, HTRF). The conditions noted are these: HEK293 cells stably transfected with human TGR5; cAMP by HTRF; 30 minutes at 37° C.; read-out: pEC50 Human TGR5 (converted). In short, it runs like this:
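First, compounds in 3-fold serial dilution were placed in HBSS with 10 mM HEPES pH 7.4 and 0.5 mM IBMX. Next, human TGR5-expressing HEK293 cells were added and incubated 30 min at 37° C. Finally, cAMP was detected by HTRF and pEC50 derived by logistic fitting.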
For orientation: In TR-FRET formats the signal depends on donor and acceptor labels being close together.
For the compound `COCCN(CCCC(C)c1ccc(Cl)c(CNC2(c3cnccc3-c3ccccc3OC3CC3)CC2)c1)C(=O)[C@@H](O)[C@@H](O)[C@H](O)[C@@H](O)CO` (stereo partly drawn) [Compound I-282, (2S,3S,4R,5S)-N-(4-{4-chloro-3-[({1-[4-(2-cyclopropoxyphenyl)pyridin-3-yl]cyclopropyl}amino)methyl]phenyl}pentyl)-2,3,4,5,6-pentahydroxy-N-(2-methoxyethyl)hexanamide], the EC50 was less than 100 nM.

In the case of `CC(CCCN(CCCCO)C(=O)[C@@H](O)[C@@H](O)[C@H](O)[C@@H](O)CO)c1ccc(Cl)c(CNC2(c3cnccc3-c3ccccc3OC3CC3)CC2)c1` (stereo partly drawn) [Compound I-283, (2S,3S,4R,5S)-N-(4-{4-chloro-3-[({1-[4-(2-cyclopropoxyphenyl)pyridin-3-yl]cyclopropyl}amino)methyl]phenyl}pentyl)-2,3,4,5,6-pentahydroxy-N-(4-hydroxybutyl)hexanamide], the EC50 was less than 100 nM.

As for `COCCCN(CCCC(C)c1ccc(Cl)c(CNC2(c3cnccc3-c3ccccc3OC3CC3)CC2)c1)C(=O)[C@@H](O)[C@@H](O)[C@H](O)[C@@H](O)CO` (stereo partly drawn) [Compound I-284, (2S,3S,4R,5S)-N-(4-{4-chloro-3-[({1-[4-(2-cyclopropoxyphenyl)pyridin-3-yl]cyclopropyl}amino)methyl]phenyl}pentyl)-2,3,4,5,6-pentahydroxy-N-(3-methoxypropyl)hexanamide], the EC50 was less than 100 nM.

As to `CC(CCCN(C(=O)[C@@H](O)[C@@H](O)[C@H](O)[C@@H](O)CO)C1CCOCC1)c1ccc(Cl)c(CNC2(c3cnccc3-c3ccccc3OC3CC3)CC2)c1` (stereo partly drawn) [Compound I-285, (2S,3S,4R,5S)-N-(4-{4-chloro-3-[({1-[4-(2-cyclopropoxyphenyl)pyridin-3-yl]cyclopropyl}amino)methyl]phenyl}pentyl)-2,3,4,5,6-pentahydroxy-N-(oxan-4-yl)hexanamide], the EC50 was 126 to 1000 nM.

Take `CC(CCCN(CCOCCO)C(=O)[C@@H](O)[C@@H](O)[C@H](O)[C@@H](O)CO)c1ccc(Cl)c(CNC2(c3cnccc3-c3ccccc3OC3CC3)CC2)c1` (stereo partly drawn) [Compound I-286, (2S,3S,4R,5S)-N-(4-{4-chloro-3-[({1-[4-(2-cyclopropoxyphenyl)pyridin-3-yl]cyclopropyl}amino)methyl]phenyl}pentyl)-2,3,4,5,6-pentahydroxy-N-[2-(2-hydroxyethoxy)ethyl]hexanamide]: the EC50 was less than 100 nM.

`CC(CCCN(CC1CCOCC1)C(=O)[C@@H](O)[C@@H](O)[C@H](O)[C@@H](O)CO)c1ccc(Cl)c(CNC2(c3cnccc3-c3ccccc3OC3CC3)CC2)c1` (stereo partly drawn) [Compound I-287, (2S,3S,4R,5S)-N-(4-{4-chloro-3-[({1-[4-(2-cyclopropoxyphenyl)pyridin-3-yl]cyclopropyl}amino)methyl]phenyl}pentyl)-2,3,4,5,6-pentahydroxy-N-(oxan-4-ylmethyl)hexanamide]: the EC50 is less than 100 nM.

As to `CC(CCCCN(CCOCCO)C(=O)[C@@H](O)[C@@H](O)[C@H](O)[C@@H](O)CO)c1ccc(Cl)c(CNC2(c3cnccc3-c3ccccc3OC3CC3)CC2)c1` (stereo partly drawn) [Compound I-288, (2S,3S,4R,5S)-N-(5-{4-chloro-3-[({1-[4-(2-cyclopropoxyphenyl)pyridin-3-yl]cyclopropyl}amino)methyl]phenyl}hexyl)-2,3,4,5,6-pentahydroxy-N-[2-(2-hydroxyethoxy)ethyl]hexanamide], the EC50 was less than 100 nM.

`CC(CCCN(CCS(C)(=O)=O)C(=O)[C@@H](O)[C@@H](O)[C@H](O)[C@@H](O)CO)c1ccc(Cl)c(CNC2(c3cnccc3-c3ccccc3OC3CC3)CC2)c1` (stereo partly drawn) [Compound I-289, (2S,3S,4R,5S)-N-(4-{4-chloro-3-[({1-[4-(2-cyclopropoxyphenyl)pyridin-3-yl]cyclopropyl}amino)methyl]phenyl}pentyl)-2,3,4,5,6-pentahydroxy-N-(2-methanesulfonylethyl)hexanamide]: the EC50 is less than 100 nM.

As to `CC(=O)NCCCCN(CCCC(C)c1ccc(Cl)c(CNC2(c3cnccc3-c3ccccc3OC3CC3)CC2)c1)C(=O)[C@@H](O)[C@@H](O)[C@H](O)[C@@H](O)CO` (stereo partly drawn) [Compound I-290, (2S,3S,4R,5S)-N-(4-{4-chloro-3-[({1-[4-(2-cyclopropoxyphenyl)pyridin-3-yl]cyclopropyl}amino)methyl]phenyl}pentyl)-N-(4-acetamidobutyl)-2,3,4,5,6-pentahydroxyhexanamide], the EC50 was less than 100 nM.

Turning to `CC(CCCCN(CCS(C)(=O)=O)C(=O)[C@@H](O)[C@@H](O)[C@H](O)[C@@H](O)CO)c1ccc(Cl)c(CNC2(c3cnccc3-c3ccccc3OC3CC3)CC2)c1` (stereo partly drawn) [Compound I-291, (2S,3S,4R,5S)-N-(5-{4-chloro-3-[({1-[4-(2-cyclopropoxyphenyl)pyridin-3-yl]cyclopropyl}amino)methyl]phenyl}hexyl)-2,3,4,5,6-pentahydroxy-N-(2-methanesulfonylethyl)hexanamide], the EC50 is less than 100 nM.

Turning to `CC(CCCN(CCCS(C)(=O)=O)C(=O)[C@@H](O)[C@@H](O)[C@H](O)[C@@H](O)CO)c1ccc(Cl)c(CNC2(c3cnccc3-c3ccccc3OC3CC3)CC2)c1` (stereo partly drawn) [Compound I-292, (2S,3S,4R,5S)-N-(4-{4-chloro-3-[({1-[4-(2-cyclopropoxyphenyl)pyridin-3-yl]cyclopropyl}amino)methyl]phenyl}pentyl)-2,3,4,5,6-pentahydroxy-N-(3-methanesulfonylpropyl)hexanamide], the EC50 is less than 100 nM.

`CCS(=O)(=O)CCN(CCCC(C)c1ccc(Cl)c(CNC2(c3cnccc3-c3ccccc3OC3CC3)CC2)c1)C(=O)[C@@H](O)[C@@H](O)[C@H](O)[C@@H](O)CO` (stereo partly drawn) [Compound I-293, (2S,3S,4R,5S)-N-(4-{4-chloro-3-[({1-[4-(2-cyclopropoxyphenyl)pyridin-3-yl]cyclopropyl}amino)methyl]phenyl}pentyl)-N-[2-(ethanesulfonyl)ethyl]-2,3,4,5,6-pentahydroxyhexanamide]: the EC50 was less than 100 nM.

With `CC(CCCN(CCCN1CCCC1=O)C(=O)[C@@H](O)[C@@H](O)[C@H](O)[C@@H](O)CO)c1ccc(Cl)c(CNC2(c3cnccc3-c3ccccc3OC3CC3)CC2)c1` (stereo partly drawn) [Compound I-294, (2S,3S,4R,5S)-N-(4-{4-chloro-3-[({1-[4-(2-cyclopropoxyphenyl)pyridin-3-yl]cyclopropyl}amino)methyl]phenyl}pentyl)-2,3,4,5,6-pentahydroxy-N-[3-(2-oxopyrrolidin-1-yl)propyl]hexanamide], the EC50 is less than 100 nM.

As to `CC(CCCN(C(=O)[C@@H](O)[C@@H](O)[C@H](O)[C@@H](O)CO)C1CCS(=O)(=O)CC1)c1ccc(Cl)c(CNC2(c3cnccc3-c3ccccc3OC3CC3)CC2)c1` (stereo partly drawn) [Compound I-295, (2S,3S,4R,5S)-N-(4-{4-chloro-3-[({1-[4-(2-cyclopropoxyphenyl)pyridin-3-yl]cyclopropyl}amino)methyl]phenyl}pentyl)-N-(1,1-dioxo-1λ^6-thian-4-yl)-2,3,4,5,6-pentahydroxyhexanamide], the EC50 was less than 100 nM.

For `CCS(=O)(=O)CCN(CCCCC(C)c1ccc(Cl)c(CNC2(c3cnccc3-c3ccccc3OC3CC3)CC2)c1)C(=O)[C@@H](O)[C@@H](O)[C@H](O)[C@@H](O)CO` (stereo partly drawn) [Compound I-296, (2S,3S,4R,5S)-N-(5-{4-chloro-3-[({1-[4-(2-cyclopropoxyphenyl)pyridin-3-yl]cyclopropyl}amino)methyl]phenyl}hexyl)-N-[2-(ethanesulfonyl)ethyl]-2,3,4,5,6-pentahydroxyhexanamide], the EC50 was less than 100 nM.

For the compound `CC(CCCN(CCCCNS(C)(=O)=O)C(=O)[C@@H](O)[C@@H](O)[C@H](O)[C@@H](O)CO)c1ccc(Cl)c(CNC2(c3cnccc3-c3ccccc3OC3CC3)CC2)c1` (stereo partly drawn) [Compound I-297, (2S,3S,4R,5S)-N-(4-{4-chloro-3-[({1-[4-(2-cyclopropoxyphenyl)pyridin-3-yl]cyclopropyl}amino)methyl]phenyl}pentyl)-2,3,4,5,6-pentahydroxy-N-(4-methanesulfonamidobutyl) hexanamide], the EC50 was less than 100 nM.

Turning to `CC(CCCN(CCN1CCS(=O)(=O)CC1)C(=O)[C@@H](O)[C@@H](O)[C@H](O)[C@@H](O)CO)c1ccc(Cl)c(CNC2(c3cnccc3-c3ccccc3OC3CC3)CC2)c1` (stereo partly drawn) [Compound I-298, (2S,3S,4R,5S)-N-(4-{4-chloro-3-[({1-[4-(2-cyclopropoxyphenyl)pyridin-3-yl]cyclopropyl}amino)methyl]phenyl}pentyl)-N-[2-(1,1-dioxo-1λ^6,4-thiomorpholin-4-yl)ethyl]-2,3,4,5,6-pentahydroxyhexanamide], the EC50 is less than 100 nM.

As to `Cc1ccc(C(C)CCCNC(=O)[C@@H](O)[C@@H](O)[C@H](O)[C@@H](O)CO)cc1CNC1(c2cnccc2-c2ccccc2OC2CC2)CC1` (stereo partly drawn) [Compound I-299, (2S,3S,4R,5S)-N-(4-{3-[({1-[4-(2-cyclopropoxyphenyl)pyridin-3-yl]cyclopropyl}amino)methyl]-4-methylphenyl}pentyl)-2,3,4,5,6-pentahydroxyhexanamide], the EC50 was less than 100 nM.

As for `Cc1ccc(C(C)CCCCNC(=O)[C@@H](O)[C@@H](O)[C@H](O)[C@@H](O)CO)cc1CNC1(c2cnccc2-c2ccccc2OC2CC2)CC1` (stereo partly drawn) [Compound I-300, (2S,3S,4R,5S)-N-(5-{3-[({1-[4-(2-cyclopropoxyphenyl)pyridin-3-yl]cyclopropyl}amino)methyl]-4-methylphenyl}hexyl)-2,3,4,5,6-pentahydroxyhexanamide], the EC50 was less than 100 nM.

The record behind these values is patent US12084472B2 (Ardelyx, Inc., priority 2015, dated 2024).
